Counter-ions that a name gives are not always drawn. Like-named read-outs stand apart in the source and are kept apart here.
Tests used:
Assay type in all cases: cell-based, human
MYB mRNA = test: Splicing RT-qPCR assay, MYB canonical (CJ) and alternative (AJ) junction mRNA; settings: Homo sapiens; for AC50: read-out: MYB AJ (AC50, increase in alternative junction mRNA)
Summary of the method: (§1)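 A673 or K562 cells were treated 24 h at 37 °C with an 11-point 3-fold compound dilution series (top 10 uM, DMSO ≤0.25%). Lysates went to one-step RT-qPCR measuring canonical (CJ) and alternative-exon (AJ) junction transcripts, normalized to GAPDH, GUSB or PPIA.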

HTT mRNA [1] = test: Splicing RT-qPCR assay, HTT canonical (CJ) and alternative (AJ) junction mRNA; settings: Homo sapiens, A673 or K562 cells, 24 hours compound treatment; for IC50: 24 h, read-out: HTT CJ (IC50, decrease in canonical junction mRNA); for AC50: read-out: HTT AJ (AC50, increase in alternative junction mRNA)
Summary of the method: as §1

HTT mRNA [2] = test: Splicing RT-qPCR gene panel, HTT canonical junction (CJ) mRNA; settings: Homo sapiens, Tables 4A/4B, read-out: HTT (IC50, decrease in CJ mRNA, gene panel)
Summary of the method: (§2)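 Cells (A673 in DMEM/10% FBS, K562 in IMDM/10% FBS) got compound for 24 h, top dose 10 uM, 11 points, 3-fold steps, DMSO ≤0.25%. Lysates went to RT-qPCR for the canonical exon-exon junction; ΔΔCt against housekeeper and DMSO gave RQ, then percentage response.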

Target C mRNA = test: Splicing RT-qPCR gene panel, Target C canonical junction (CJ) mRNA; settings: Homo sapiens, Tables 4A/4B, read-out: Target C (IC50, decrease in CJ mRNA, gene panel)
Summary of the method: as §2

SMN2 mRNA = test: Splicing RT-qPCR gene panel, SMN2 canonical junction (CJ) mRNA; settings: Homo sapiens, Tables 4A/4B, read-out: SMN2 (IC50, decrease in CJ mRNA, gene panel)
Summary of the method: as §2

[3] = 24 h, A673 or K562 cells, 24 hours compound treatment, RT-qPCR
[4] = 24 h, A673 or K562 cells, 24 hours compound treatment, RT-qPCR, read-out: MYB CJ (IC50, decrease in canonical junction mRNA)
[5] = Tables 4A/4B, canonical junction qPCR panel, read-out: MYB (IC50, decrease in CJ mRNA, gene panel)

Row | SMILES | AC50 (MYB mRNA; [3]) [nM] | IC50 (MYB mRNA; [4]) [nM] | IC50 (MYB mRNA; [5]) [nM] | IC50 (HTT mRNA [1]) [nM] | AC50 (HTT mRNA [1]) [nM] | IC50 (HTT mRNA [2]) [nM] | IC50 (Target C mRNA) [nM] | IC50 (SMN2 mRNA) [nM]
1 | Cc1cn2cc(NC(=O)c3ccc(N4CCNCC4)c4cn(CC(=O)N(C)C)nc34)cc(F)c2n1 [Compound 309, 2-[(dimethylcarbamoyl)methyl]-N-{8-fluoro-2-methylimidazo[1,2-a]pyridin-6-yl}-4-(piperazin-1-yl)indazole-7-carboxamide] | > 10000 | 1000 to 10000 | 1000 to 10000 | > 10000 | > 10000 | > 10000 | > 10000 | 1000 to 10000
2 | CCNC1CCN(c2ccc(C(=O)Nc3cc(F)c4nc(C)cn4c3)c3nn(CCOC)cc23)C1 (centres unmarked) [Compound 310, 4-(3-(ethylamino)pyrrolidin-1-yl)-N-(8-fluoro-2-methylimidazo[1,2-a]pyridin-6-yl)-2-(2-methoxyethyl)-2H-indazole-7-carboxamide] | < 100 | < 100 | < 100 | 1000 to 10000 | 1000 to 10000 | 1000 to 10000 | > 10000 | < 100
3 | COc1cc(C(=O)Nc2cc(F)c3nc(C)cn3c2)c2nn(C)cc2c1N1CCNCC1 [Compound 311, N-{8-fluoro-2-methylimidazo[1,2-a]pyridin-6-yl}-5-methoxy-2-methyl-4-(piperazin-1-yl)indazole-7-carboxamide] | 1000 to 10000 | 100 to 1000 | 100 to 1000 | > 10000 | > 10000 | > 10000 | > 10000 | < 100
4 | CCCCn1cc2c(N3CCNCC3)ccc(C(=O)Nc3cc(F)c4nc(C)cn4c3)c2n1 [Compound 312, 2-butyl-N-{8-fluoro-2-methylimidazo[1,2-a]pyridin-6-yl}-4-(piperazin-1-yl)indazole-7-carboxamide] | < 100 | 100 to 1000 | 100 to 1000 | 1000 to 10000 | 1000 to 10000 | 1000 to 10000 | 1000 to 10000 | < 100
5 | Cc1cn2cc(NC(=O)c3ccc(N4CCNCC4)c4cn(Cc5ccncc5)nc34)cc(F)c2n1 [Compound 313, N-{8-fluoro-2-methylimidazo[1,2-a]pyridin-6-yl}-4-(piperazin-1-yl)-2-(pyridin-4-ylmethyl)indazole-7-carboxamide] | 1000 to 10000 | 1000 to 10000 | 1000 to 10000 | > 10000 | > 10000 | > 10000 | 1000 to 10000 | 100 to 1000
6 | Cc1cn2cc(NC(=O)c3ccc(N4CCNCC4)c4cn(C)nc34)cc(C#N)c2n1 [Compound 314, N-{8-cyano-2-methylimidazo[1,2-a]pyridin-6-yl}-2-methyl-4-(piperazin-1-yl) indazole-7-carboxamide hydrochloride] | < 100 | < 100 | < 100 | 1000 to 10000 | 1000 to 10000 | 1000 to 10000 | > 10000 | < 100
7 | COc1c(NC(=O)c2ccc(N3CCNCC3)c3cn(C)nc23)cc2cn(C)nc2c1F [Compound 315, N-(7-fluoro-6-methoxy-2-methylindazol-5-yl)-2-methyl-4-(piperazin-1-yl) indazole-7-carboxamide hydrochloride] | < 100 | < 100 | < 100 | 100 to 1000 | 100 to 1000 | 100 to 1000 | 100 to 1000 | < 100
8 | Cc1cn2cc(NC(=O)c3ccc(N4CCNCC4)c4cn(CC(F)(F)F)nc34)cc(F)c2n1 [Compound 316, N-{8-fluoro-2-methylimidazo[1,2-a]pyridin-6-yl}-4-(piperazin-1-yl)-2-(2,2,2-trifluoroethyl)indazole-7-carboxamide] | 100 to 1000 | 1000 to 10000 | 1000 to 10000 | > 10000 | > 10000 | > 10000 | > 10000 | 100 to 1000
9 | Cc1cn2cc(NC(=O)c3ccc(N4CCNCC4)c4cn(Cc5cncnc5)nc34)cc(F)c2n1 [Compound 318, N-{8-fluoro-2-methylimidazo[1,2-a]pyridin-6-yl}-4-(piperazin-1-yl)-2-(pyrimidin-5-ylmethyl)indazole-7-carboxamide] | 100 to 1000 | 100 to 1000 | 100 to 1000 | > 10000 | > 10000 | > 10000 | > 10000 | < 100
10 | Cn1cc2cc(NC(=O)c3ccc(N4CCNCC4)c4cn(C)nc34)cc(F)c2n1 [Compound 319, N-(7-fluoro-2-methylindazol-5-yl)-2-methyl-4-(piperazin-1-yl) indazole-7-carboxamide hydrochloride] | < 100 | < 100 | < 100 | 1000 to 10000 | 1000 to 10000 | 1000 to 10000 | 1000 to 10000 | < 100
11 | Cc1cc(NC(=O)c2ccc(N3CCNCC3)c3cn(C)nc23)cc2cn(C)nc12 [Compound 320, N-(2,7-dimethylindazol-5-yl)-2-methyl-4-(piperazin-1-yl) indazole-7-carboxamide; trifluoroacetic acid] | 100 to 1000 | 100 to 1000 | 100 to 1000 | 1000 to 10000 | 1000 to 10000 | 1000 to 10000 | > 10000 | < 100
12 | Cc1cc(NC(=O)c2ccc(N3CCNCC3)c3cn(C)nc23)cc2c1nc(C)n2C [Compound 321, 2-methyl-4-(piperazin-1-yl)-N-(2,3,7-trimethyl-1,3-benzodiazol-5-yl) indazole-7-carboxamide trifluoroacetate] | > 10000 | > 10000 | > 10000 | > 10000 | > 10000 | > 10000 | > 10000 | > 10000
13 | Cc1cn2nc(NC(=O)c3ccc(N4CCNCC4)c4cn(C)nc34)cc(C)c2n1 [Compound 322, N-{2,8-dimethylimidazo[1,2-b]pyridazin-6-yl}-2-methyl-4-(piperazin-1-yl) indazole-7-carboxamide hydrochloride] | > 10000 | 1000 to 10000 | 1000 to 10000 | > 10000 | > 10000 | > 10000 | > 10000 | 1000 to 10000
14 | COc1nc(NC(=O)c2ccc(N3CCNCC3)c3cn(C)nc23)cn2cc(C)nc12 [Compound 323] | < 100 | < 100 | < 100 | < 100 | 100 to 1000 | < 100 | 1000 to 10000 | < 100
15 | Cn1cc2cc(NC(=O)c3ccc(N4CCNCC4)c4cn(C)nc34)ccc2n1 [Compound 324, 2-methyl-N-(2-methylindazol-5-yl)-4-(piperazin-1-yl) indazole-7-carboxamide hydrochloride] | 100 to 1000 | 100 to 1000 | 100 to 1000 | > 10000 | 1000 to 10000 | > 10000 | > 10000 | < 100
16 | Cc1c(O)c(NC(=O)c2ccc(N3CCNCC3)c3cn(C)nc23)cc2cn(C)nc12 [Compound 325, N-(6-hydroxy-2,7-dimethylindazol-5-yl)-2-methyl-4-(piperazin-1-yl) indazole-7-carboxamide hydrochloride] | 1000 to 10000 | 1000 to 10000 | 1000 to 10000 | > 10000 | > 10000 | > 10000 | > 10000 | < 100

Source: patent publication US20250154169A1, “COMPOUNDS AND METHODS FOR MODULATING SPLICING” (REMIX THERAPEUTICS INC., priority 2021, published 2025)
